For eleven compounds, IC50 results are on record in patent US5654296A, “Condensed heterocyclic compounds, their production and use” (priority 1994, dated 1997).

The IC50 is the midpoint of a concentration-inhibition curve.

The test system of one test is serotonine (5-HT) uptake. Briefly: Activity to inhibit serotonine (5-HT) uptake. The test is classed as biochemical. The conditions noted are these: rat whole brain; 3H-5-HT 10 nM; 37° C.; pH 7.4; read-out: 5-HT uptake inhibitory activity (IC50 μM). On the procedure: (a) Activity to inhibit serotonine (5-HT) uptake
(§1) The experiment was performed in accordance with the method of Hyttel et al. [Psychopharmacology 60, 13, 1978]. The whole brain of a rat was homogenized in 40 volumes of ice-cooled 0.32M sucrose solution containing 10 μM pargyline and, then, centrifuged (600×G) for 10 minutes. The supernatant was centrifuged (2500×G) for 55 minutes to provide a pellet. This pellet was suspended in Krebs-Ringer-phosphate buffer (pH 7.4; 122 mM NaCl, 4.82 mM KCl, 0.972 mM CaCl2, 1.21 mM MgSO4, 12.7 mM Na2 HPO4, 2.97 mM NaH2 PO4, 0.162 mM EDTA sodium, 10 mM glucose, 1.14 mM ascorbic acid) saturated with a mixed gas (95% O and 5% CO2). To 900 μl of this suspention was added a solution of the test drug (10 μl) in DMSO and the mixture was incubated at 37° C. for 5 minutes. Then, 100 μl of ^3 H-5-HT (final concentration 10 nM) was added and the mixture was further incubated at 37° C. for 5 minutes. This reaction mixture was filtered under suction using a GF/B filter and the filter was washed with 4 ml of the above-mentioned buffer. The radioactivity on the filter was measured by the liquid scintillation method.
The amount of the drug which caused a 50% decrease in 5-HT uptake is shown as 50% inhibitory activity (IC50) in Table 42.

The subject of test [1] is 45Ca2+ uptake (veratrine-stimulated, rat cerebral cortex crude synaptosome fraction). The test is described as follows: 45Ca2+ uptake inhibition experiment. It counts as biochemical. The conditions noted are these: 30 μM veratrine, 37° C., 10 minutes, read-out: 45Ca2+ uptake inhibitory activity (IC50 μM). The procedure: The rat cerebral cortex was homogenized in 10 volumes of ice-cooled 0.32M sucrose solution to prepare a crude synaptosome fraction (100×G, 10 min., 12000×G, 20 min.). […] To 900 μl of the homogenate was added a DMSO solution of the test drug (10 μl). The mixture was incubated at 37° C. for 10 minutes, followed by addition of 100 μl of a veratrine solution (containing 0.18 uci ^45 Ca^2+) at a final veratrine concentration of 30 μM. The mixture was incubated at 37° C. for 10 minutes, quenched with 4 ml of ice-cooled EGTA solution (120 mM sodium chloride, 5 mM potassium chloride, 5 mM EGTA, pH=7.5) and suction-filtered using a GF/B filter. The filter was washed twice with 4 ml each of a washing solution (132 mM sodium chloride, 5 mM potassium chloride, 1.3 mM magnesium chloride, 1.2 mM calcium, chloride, 20 mM Tris base, pH 7.5) and the radioactivity of […] was measured by the liquid scintillation method.
The ^45 Ca^2+ uptake inhibition rate was calculated by means of the following equation. [formula] A: The ^45 Ca^2+ uptake after 10 minutes' stimulation with 30 μM veratrine in the presence of the test drug
B: The ^45 Ca^2+ uptake in the absence of veratrine and in the presence of the test drug
C: The ^45 Ca^2+ uptake after 10 minutes' stimulation with 30 μM veratrine in the absence of the test drug
D: The ^45 Ca^2+ uptake in the absence of the test drug and in the absence of veratrine

In test [2] the test system is norepinephrine (NE) uptake. Briefly: Activity to inhibit norepinephrine (NE) uptake. It counts as biochemical. As to conditions: rat cerebral cortex; 3H-NE; read-out: NE uptake inhibitory activity (IC50 μM). The procedure: as §1
(b) Activity to inhibit norepinephrine (NE) uptake
Using the rat cerebral cortex and, as the substrate, ^3 H-NE, an experiment was performed by otherwise the same procedure as described for 5-HT.

The target in test [3] is T1, GnRH receptors (bovine pituitary anterior lobe membrane fraction) (Bos taurus, UniProt P32236).
T1 construct: A bovine pituitary anterior lobe membrane fraction containing GnRH receptors was prepared; from tissue; host or cells: bovine pituitary anterior lobe, membrane fraction
T1 sequence (P32236 1-328): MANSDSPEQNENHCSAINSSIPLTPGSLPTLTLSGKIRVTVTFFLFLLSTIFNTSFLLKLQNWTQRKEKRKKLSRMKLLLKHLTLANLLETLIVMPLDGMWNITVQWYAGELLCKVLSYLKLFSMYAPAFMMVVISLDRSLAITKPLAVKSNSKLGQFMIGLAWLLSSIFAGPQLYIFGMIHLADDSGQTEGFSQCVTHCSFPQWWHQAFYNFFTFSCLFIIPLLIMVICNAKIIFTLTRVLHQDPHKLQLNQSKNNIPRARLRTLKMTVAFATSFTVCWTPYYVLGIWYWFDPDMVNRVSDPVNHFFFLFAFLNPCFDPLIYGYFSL
The test is described as follows: 125I-leuprolerin GnRH receptor binding inhibition test, bovine pituitary anterior lobe membrane fraction. The conditions noted are these: 4° C., 90 minutes, read-out: Binding inhibitory activity (IC50 μM) Bovine. On the procedure: Ten (10) μl of 3×10^4 M aqueous leuprolerin solution and 10 μl of 0.01 mg/ml lactoperoxidase were taken in a tube and 10 μl of Na^125 I solution (37 MBq) was added. After stirring, 10 μl of 0.001% H2 O2 was added and the reaction was conducted at room temperature for 20 minutes. Then, 700 μl of 0.05% TFA solution was added to the tube to terminate the reaction and the reaction mixture was purified by reverse-phase HPLC. The HPLC conditions are shown below. ^125 I-leuprolerin was eluted after a retention time of 26-27 minutes. (C) Preparation of a Bovine Pituitary Anterior Lobe Membrane Fraction Containing GnRH Receptors A bovine pituitary anterior lobe membrane fraction containing GnRH receptors was prepared by the same procedure as described under (B). However, a 10,000×G centrifugation supernatant was recentrifuged at 100,000×G for 1 hour to provide the membrane fraction pellet. […] For the rat and human membrane fractions prepared in (B) and (D), each membrane fraction was diluted with assay buffer to a concentration of 200 μg/ml and distributed in 188 μl portions into tubes. As to the bovine membrane fraction prepared in (C), the membrane fraction was diluted with assay buffer to 750 μg/ml and distributed in 188 μl portions into tubes. […] Where the rat or bovine pituitary anterior lobe membrane fraction was used, the reaction was conducted at 4° C. for 90 minutes. Where the membrane fraction of the CHO with human GnRH receptors expressed was used, the reaction was carried out at 25° C. for 60 minutes. […] After filtration, the radioactivity of ^125 I-leuprolerin remaining on the filter was measured with a γ-counter. The expression (TB-SB)/(TB-NSB)×100 (where SB=radioactivity with the compound added, TB=maximum bound radioactivity, NSB=nonspecifically bound radioactivity) was calculated to find the binding inhibition rate of each test compound.

Test [4] has as its target T2, GnRH receptors (rat pituitary anterior lobe membrane fraction) (Rattus norvegicus, UniProt P30969).
T2 construct: the anterior lobe of the pituitary gland was isolated and washed with ice-cooled homogenate buffer; from tissue; host or cells: anterior lobe of the pituitary gland, male Wistar rats (8 weeks old), membrane fraction
T2 sequence (P30969 1-327): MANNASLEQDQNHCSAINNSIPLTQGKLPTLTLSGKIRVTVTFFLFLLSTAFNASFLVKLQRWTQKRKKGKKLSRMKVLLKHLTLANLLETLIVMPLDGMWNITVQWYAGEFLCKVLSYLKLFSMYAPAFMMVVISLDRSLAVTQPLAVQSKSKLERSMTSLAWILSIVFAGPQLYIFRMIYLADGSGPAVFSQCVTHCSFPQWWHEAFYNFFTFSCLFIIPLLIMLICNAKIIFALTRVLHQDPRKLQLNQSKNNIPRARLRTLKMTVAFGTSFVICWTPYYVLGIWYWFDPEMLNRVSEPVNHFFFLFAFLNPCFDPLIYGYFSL
The test is described as follows: 125I-leuprolerin GnRH receptor binding inhibition test, rat pituitary anterior lobe membrane fraction. As to conditions: 4° C., 90 minutes, read-out: Binding inhibitory activity (IC50 μM) Rat. On the procedure:
Ten (10) μl of 3×10^4 M aqueous leuprolerin solution and 10 μl of 0.01 mg/ml lactoperoxidase were taken in a tube and 10 μl of Na^125 I solution (37 MBq) was added. After stirring, 10 μl of 0.001% H2 O2 was added and the reaction was conducted at room temperature for 20 minutes. Then, 700 μl of 0.05% TFA solution was added to the tube to terminate the reaction and the reaction mixture was purified by reverse-phase HPLC. The HPLC conditions are shown below. ^125 I-leuprolerin was eluted after a retention time of 26-27 minutes. (B) Preparation of a Rat Pituitary Anterior Lobe Membrane Fraction Containing GnRH Receptors […] The pituitary tissue was floated in 2 ml of the homogenate buffer and homogenized using a Polytron homogenizer. The homogenate was centrifuged at 700×G for 15 minutes. The supernatant was taken in an ultracentrifuge tube and centrifuged at 100,000×G for 1 hour to provide a membrane fraction pellet. […] The membrane fraction recovered as a pellet was resuspended in 10 ml of assay buffer, divided into portions, preserved at -80° C. and thawed when needed. […] For the rat and human membrane fractions prepared in (B) and (D), each membrane fraction was diluted with assay buffer to a concentration of 200 μg/ml and distributed in 188 μl portions into tubes. As to the bovine membrane fraction prepared in (C), the membrane fraction was diluted with assay buffer to 750 μg/ml and distributed in 188 μl portions into tubes. […] Where the rat or bovine pituitary anterior lobe membrane fraction was used, the reaction was conducted at 4° C. for 90 minutes. Where the membrane fraction of the CHO with human GnRH receptors expressed was used, the reaction was carried out at 25° C. for 60 minutes. […] After filtration, the radioactivity of ^125 I-leuprolerin remaining on the filter was measured with a γ-counter. The expression (TB-SB)/(TB-NSB)×100 (where SB=radioactivity with the compound added, TB=maximum bound radioactivity, NSB=nonspecifically bound radioactivity) was calculated to find the binding inhibition rate of each test compound.

Each structure is given as a SMILES string. Where a name gives a salt, the structure may show the parent alone.

Turning to `c1ccc(C2(CCN3CCCCC34CCc3ccccc3C4)COCc3ccccc32)cc1` (centres unmarked) [Example I-12, 3,4-Dihydro-1'-[2-(4-phenylisochroman-4-yl)ethyl]spiro[naphthalene-2(1H),2'-piperidine] hydrochloride], the IC50 stood at 0.022 µM with serotonine (5-HT) uptake, 0.85 µM in test [1] and 0.015 µM in test [2].

With `COc1ccc(CCNCCCC2(c3ccccc3)COCc3ccccc32)cc1OC` (centres unmarked) [Example I-25, 4-[3-(3,4-Dimethoxyphenethylamino)propyl]-4-phenylisochroman hydrochloride], the figures for the IC50 (with serotonine (5-HT) uptake; in test [1]; in test [2]) were 0.14 µM, 1.19 µM and 0.39 µM, respectively.

`Fc1ccc(N2CCN(CCCC3(c4ccccc4)COCc4ccccc43)CC2)cc1` (centres unmarked) [Example I-30, 4-{3-[4-(p-Fluorophenyl)piperazin-1-yl]propyl}-4-phenylisochroman dihydrochloride]: the IC50 with serotonine (5-HT) uptake amounted to 0.068 µM; in test [1], 1.59 µM; in test [2], 0.59 µM.

For `c1ccc(C2CCN(CCCC3(c4ccccc4)COCc4ccccc43)CC2)cc1` (centres unmarked) [Example I-33, 4-[3-(4.-Phenylpiperidino)propyl]-4-phenylisochroman hydrochloride], the values for the IC50 (in the test on serotonine (5-HT) uptake; in test [1]; in test [2]) were 0.27 µM, 0.69 µM and 0.55 µM, respectively.

Turning to `COc1cc2c(cc1OC)CC1(CCCCN1CCCC1(c3ccccc3)COCc3ccccc31)CC2` (centres unmarked) [Example I-37, 3,4-Dihydro-6,7-dimethoxy-1'-[3-(4-phenylisochroman-4-yl)propyl]spiro[naphthalene-2(1H),2'-piperidine] hydrochloride], the IC50 in test [3] was 6 µM; in test [4], 0.03 µM.

Consider `Cc1cccc(CNCCCC2(c3ccccc3)COCc3ccccc32)c1` (centres unmarked) [Example I-46, 4-[3-(m-Methylbenzylamino)propyl]-4-phenylisochroman hydrochloride], for which the results for the IC50 in test [3] and in test [4] were 14 µM and 0.5 µM, respectively.

In the case of `O=C1c2ccsc2CCC12CCCCN2CCCC1(c2ccccc2)COCc2ccccc21` (centres unmarked) [Example I-47, 6,7-Dihydro-1'-[3-(4-phenylisochroman-4-yl)propyl]spiro[4-oxobenzo(b)thiophene-5(4H),2'-piperidine] hydrochloride], the IC50 in test [3] was found to be 7 µM; in test [4], 0.3 µM.

For `COc1ccc2c(c1)CCC1(CCCCN1CCCC1(c3ccccc3)COCc3ccccc31)C2=O` (centres unmarked) [Example I-48, 3,4-Dihydro-6-methoxy-1'-[3-(4-phenylisochroman-4-yl)propyl]spiro[1-oxonaphthalene-2-(1H),2'-piperidine] hydrochloride], the IC50 in test [3] stood at 10 µM; in test [4], 0.4 µM.

As for `O=C1c2ccccc2CCC12CCCCN2CCCC1(c2ccccc2)COCc2ccccc21` (centres unmarked) [Example I-49, 3,4-Dihydro-1'-[3-(4-phenylisochroman-4-yl)propyl]spiro[1-oxonaphthalene-2(1H),2'-piperidine] hydrochloride], the IC50 in test [3] was found to be 10 µM; in test [4] it was 0.5 µM.

In the case of `COc1cc2c(cc1OC)CC1(CCCCN1CCCC1(c3ccc(F)cc3)COCc3ccccc31)CC2` (centres unmarked) [Example I-50, 3,4-Dihydro-6,7-dimethoxy-1'-{3-[4-(p-fluorophenyl)isochroman-4-yl]propyl}spiro[naphthalene-2(1H),2'-piperidine] hydrochloride], the results for the IC50 in test [3] and in test [4] were 8 µM and 0.08 µM, respectively.

On to `c1ccc(C2(CCCNC3CCCc4ccccc43)COCc3ccccc32)cc1` (centres unmarked) [Example I-51, 4-Phenyl-4-{3-[1-(1,2,3,4-tetrahydronaphthylamino)]propyl]isochroman hydrochloride], for which the IC50 in test [3] amounted to 10 µM; in test [4], 0.5 µM.
